pIC50: −log10 of the molar value. Read-outs that look alike come from different tables or passages of the source.
Experiments:
[1] = system: C6 Cells from glioblastomas of rats; assay: Cytotoxicity on the C6 cell line (quantitative neutral red assay)
Description: c) C6 Cells from glioblastomas of rats. […] These cells were cultured in MEM (Minimum Essential Medium), in the presence of 5% of foetal calf serum. Incubation was conducted at 37° C. in a 5% CO2 humidity atmosphere.
The cells were seeded in 96-well plates with 2000 cells per well in 200 μL of MEM/HANKS (70/30) in the presence of 5% of foetal calf serum. The compounds were added 24 hours after seeding. […] The concentration range used did vary from 50 μM to 24 nM by conducting ½ to ½ serial dilutions.
(§1) The activity evaluation of the test compounds was effected by measuring the cell viability in the culture wells, by means of a so called “neutral red assay” that did consist in contacting the cells with this dye, the accumulation of which in cell acidic compartments does express the health status of the latter. The neutral red test makes it thus possible to know the cytotoxic effect of a compound. The dye was used from a 0.33% stock solution in PBS. 20 μL of such solution were added to each culture well containing 300 μL of culture medium and the plates were incubated at 37° C. for three hours.
(§2) The supernatant of each well was then removed by succion. […] The wells were evacuated again, and the cells were lyzed, thus salting out the dye in the well, this procedure being effected with a solution made of ethanol, water and acetic acid (50/49/1). The colour intensity obtained directly indicated the cell viability. It was quantified by measuring the absorbance at 570 nm. This measure was effected on a 96-well plate reader, of BIO-RAD Microplate reader 550 type, providing an optical density value (OD) for each well of culture.
(§3) Thereafter IC50 values were therefore determined by establishing the OD well X/OD control ratio, thus directly providing the percentage of living cells in the medium.
The quantitative evaluation of the cytotoxicity of the compounds of the invention against modified cells that are said to be “cancerous” was conducted on the C6 cell line. Plates were seeded at a cell density of 2000 cells per well. This density enabled to obtain a 80% confluence after a 4 day-culture for non treated cells.

[2] = system: astrocyte primary cultures from the cortex of a newborn rat; assay: Cytotoxicity on the non modified astrocytes, so called healthy cells (quantitative assay); settings: second day after addition, 50 μM to 24 nM
Description: (§4) b) Astrocyte primary cultures from the cortex of a newborn rat for testing the so called “healthy cells”. This primary culture was conducted based on the brain tissue removed from the cortex of a newborn rat. After homogeneization, trypsinization and centrifugation, cells were distributed in 24-well plates for about 3 weeks. Oligodendrocytes were then removed by stirring the culture plates for 30 minutes and by changing the supernatant with fresh medium.
as §1, §2, §3
(§5) Cytotoxicity evaluation assays against the so called “healthy cells” were conducted on astrocyte primary cultures collected from the cortex of newborn rats, mimetizing the physiology of a so called “healthy cell”, i.e. a non cancerous cell.
(§6) These cells being unmodified, their division time was very long (about 50 hours). It was thus necessary to choose a higher initial seeding concentration (5000 cells per well). The compounds (1) were introduced only after 96 hours so as to allow the cells to adhere to the well walls and to divide once or twice. The concentration range for the test compounds (1) varied from 50 μM to 24 nm as for the C6 cells. Controls were carried out the second day following the introduction of the compounds (1). Two plates were made available for each measurement.

[3] = system: spontaneously converted astrocytes collected from the cortex of a newborn rat; assay: Cytotoxicity on the spontaneously converted astrocytes (qualitative assay, microscopic observation); assay type: cell-based; settings: microscopic observation each day for four days, 50 μM to 400 nM
Source text: a) Spontaneously converted astrocytes collected from the cortex of a newborn rat (see Bochelen D., Langley K., Adamczyk M., Kupfberg, Hor F., Vincendon G., Mersel M., J. Neurosci. Res., 2000, 62, 99-111), that is to say from normal glial cells maintained in culture and that became able to divide to infinity. These cells are not able to induce tumors after implantation in the rat but did avoid the cell cycle regulation. This cell line was maintained in culture in culture flasks in the presence of 5 mL of culture medium MH5 comprising 70% of MEM and 30% of a Hanks solution. This medium was supplemented with 5% of foetal calf serum. The culture medium was changed every three days. Cells were incubated at 37° C. in an air/CO2 atmosphere (95/5). For the experiments, a replanting was effected after removal of the culture medium, cells were treated for 4 to 5 minutes with trypsine (0.1%). The cell suspension was then placed in 5 mL of fresh medium, 50 μL of this solution were collected to perform the cell counting. […]
These assays conducted on compounds 3.28, 3.8, 3.5. […] The effect was evaluated by simple microscopic observation of the culture plates. […] The evaluated compounds did present an activity at a very low concentration. An activity could be observed after 72 h to 96 h (days 3 and 4) for the whole evaluated compounds.

[4] = system: astrocyte primary cultures from the cortex of a newborn rat
Description: as §4, §1, §2, §3, §5, §6

[5] = C6 cell line, high concentration

Row | Compound | pIC50 ([1]; Rattus norvegicus, C6, 48 h) | cytotoxicity on healthy cells (cell viability) [2] | also measured
1 | CC1(C)O[C@H]2[C@@H]([C@H]3COC(C)(C)O3)O[P@@](=O)(c3ccccc3)[C@@H](Oc3ccc([N+](=O)[O-])cc3)[C@H]2O1 [Compound 3.9a, 4-(2,2-Dimethyl-[1,3]dioxolan-4-yl)-2,2-dimethyl-2-oxo-2-phenyl-tetrahydro-6λ*5*-[1,3]dioxolo[4,5-d][1,2]oxaphosphinan-3-oxy-p-nitrophenyl] | 6.00 to 6.40 |  | 
2 | Cc1ccc(N[C@H]2[C@H]3OC(C)(C)O[C@H]3[C@@H]([C@H]3COC(C)(C)O3)O[P@@]2(=O)c2ccccc2)cc1 [Compound 3.30a, 4-(2,2-Dimethyl-[1,3]dioxolan-4-yl)-2,2-dimethyl-2-oxo-2-phenyl-tetrahydro-6λ*5*-[1,3]dioxolo[4,5-d][1,2]oxaphosphinan-3-aminotoluyl] | 5.30 to 6.30 | did not show any significative effect | mortality of C6 cells when highly concentrated [1, 5]: total mortality
3 | COc1ccc([P@]2(=O)O[C@H](COCc3ccccc3)[C@@H](OCc3ccccc3)[C@H](OCc3ccccc3)C2O)cc1 (some centres unmarked) [Compound 3.51a, 4,5-bis-benzyloxy-6-benzyloxymethyl-2-(p-methoxy)phenyl-2-oxo-2λ^5-[1,2]oxaphosphinan-3-ol] | 5.30 to 7.00 | did not show any significative effect | mortality of C6 cells when highly concentrated [1, 5]: total mortality
4 | O=[N+]([O-])c1ccc([P@]2(=O)O[C@H](COCc3ccccc3)[C@@H](OCc3ccccc3)[C@H](OCc3ccccc3)C2O)cc1 (single isomer, unassigned) [Compound 3.52, 4,5-bis-benzyloxy-6-benzyloxymethyl-2-(p-nitro)phenyl-2-oxo-2λ^5-[1,2]oxaphosphinan-3-ol] | 5.30 to 7.00 | absence of cytotoxicity | 
5 | CC1(C)O[C@H]2[C@@H]([C@H]3COC(C)(C)O3)O[P@@](=O)(c3ccccc3)[C@@H](NCc3ccccc3)[C@H]2O1 [Compound 3.28, 4-(2,2-Dimethyl-[1,3]dioxolan-4-yl)-2,2-dimethyl-2-oxo-2-phenyl-tetrahydro-6λ*5*-[1,3]dioxolo[4,5-d][1,2]oxaphosphinan-3-aminobenzyl] | 5.30 to 6.10 | absence of cytotoxicity | cytotoxic activity on spontaneously converted astrocytes [3]: cytotoxic activity
6 | CC1(C)O[C@H]2[C@@H]([C@H]3COC(C)(C)O3)O[P@@](=O)(c3ccccc3)[C@@H](OC(=N)C(Cl)(Cl)Cl)[C@H]2O1 [Compound 3.57, 4-(2,2-Dimethyl-[1,3]dioxolan-4-yl)-2,2-dimethyl-2-oxo-2-phenyl-tetrahydro-6λ*5*-[1,3]dioxolo[4,5-d][1,2]oxaphosphinan-3-imidate] | 5.30 to 7.00 |  | mortality of C6 cells when highly concentrated [1]: total mortality; cytotoxicity on healthy cells (cell viability) [4]: did not show any significative effect; cell death of healthy cells ([4]; rat): ≤ 20%
7 | 6-(1,2-dihydroxy-ethyl)-2,2-dimethyl-2-oxo-2-diethoxymethyl-tetrahydro-6λ*5*-[1,3]dioxolo[4,5-d][1,2]oxaphosphinan-3-tosyl [Compound 3.6] |  |  | pIC50 ([1]; C6 cell line, neutral red cell viability, measures conducted on day 2 or 3): 5.82
8 | Cc1ccc(N[C@H]2[C@H]3OC(C)(C)O[C@H]3[C@@H]([C@H]3COC(C)(C)O3)O[P@@]2(=O)c2ccccc2)cc1 [Compound 3.30b, 4-(2,2-Dimethyl-[1,3]dioxolan-4-yl)-2,2-dimethyl-2-oxo-2-phenyl-tetrahydro-6λ*5*-[1,3]dioxolo[4,5-d][1,2]oxaphosphinan-3-aminotoluyl] |  | absence of cytotoxicity | 
9 | O=[P@@]1(c2ccccc2)O[C@H](COCc2ccccc2)[C@@H](OCc2ccccc2)[C@H](OCc2ccccc2)C1O (some centres unmarked) [Compound 3.48a, 4,5-bis-benzyloxy-6-benzyloxymethyl-2-phenyl-2-oxo-2λ^5-[1,2]oxaphosphinan-3-ol] | 5.70 to 6.00 |  | 
10 | CCOC(OCC)P1(=O)O[C@H]([C@H]2COC(C)(C)O2)[C@@H]2OC(C)(C)O[C@@H]2C1O (some centres unmarked) [Compound 3.19a, 4-(2,2-Dimethyl-[1,3]dioxolan-4-yl)-2,2-dimethyl-2-oxo-2-diethoxymethyl-tetrahydro-6λ*5*-[1,3]dioxolo[4,5-d][1,2]oxaphosphinan-3-ol] |  |  | cytotoxic activity on spontaneously converted astrocytes [3]: cytotoxic activity
